Test results as given in ChEMBL document CHEMBL4651402, “Screening of ~5500 FDA-approved drugs and clinical candidates for anti-SARS-CoV-2 activity” (2021).

Tested on: SARS-CoV-2
Experiment: microbe, parasite or virus in culture
Conditions: Severe acute respiratory syndrome coronavirus 2, Vero C1008, 48 h

Row | Structure (SMILES) | IC50 | IC50 (read-out: pIC50 (converted))
1 | O=C(CNC(=O)c1cccc(C(F)(F)F)c1)NC1CN([C@H]2CC[C@@](O)(c3cncs3)CC2)C1 [JNJ-41443532] | > 20 µM | > 20 µM
2 | O=C(Nc1cnccc1Cl)N1CCN(Cc2ccc3c(c2)OC(F)(F)O3)CC1 [JNJ-42165279] | > 20 µM | > 20 µM
3 | COCC(=O)Nc1cc(COc2ccc(NC(=O)Nc3cc(C(C)(C)C)nn3-c3ccc(C)cc3)c3ccccc23)ccn1 [JNJ-49095397] | > 20 µM | > 20 µM
4 | C[C@@H]1c2nnn(-c3ncc(F)cn3)c2CCN1C(=O)c1cccc(C(F)(F)F)c1Cl [JNJ-54175446] | > 20 µM | > 20 µM
5 | CO[C@@H]1[C@@H](O[C@@H]2O[C@H](C)[C@@H](O[C@H]3C[C@@](C)(O)[C@@H](OC(=O)CC(C)C)[C@H](C)O3)[C@H](N(C)C)[C@H]2O)[C@@H](CC=O)C[C@@H](C)[C@@H](O)/C=C/C=C/C[C@@H](C)OC(=O)C[C@H]1OC(C)=O [JOSAMYCIN] | > 20 µM | > 20 µM
6 | O=C1C=CC(=O)c2c(O)cccc21 [JUGLONE] | > 20 µM | > 20 µM
7 | O=c1c(O)c(-c2ccc(O)cc2)oc2cc(O)cc(O)c12 [KAEMPFEROL] | > 20 µM | > 20 µM
8 | C=C(C)[C@H]1CN[C@H](C(=O)O)[C@H]1CC(=O)O [KAINIC ACID] | > 20 µM | > 20 µM
9 | NC[C@H]1O[C@H](O[C@H]2[C@H](O)[C@@H](O[C@H]3O[C@H](CO)[C@@H](O)[C@H](N)[C@H]3O)[C@H](N)C[C@@H]2N)[C@H](O)[C@@H](O)[C@@H]1O [KANAMYCIN] | > 20 µM | > 20 µM
10 | CNC1(c2ccccc2Cl)CCCCC1=O (centres undefined) [KETAMINE] | > 20 µM | > 20 µM
11 | O=C(c1ccc(F)cc1)C1CCN(CCn2c(=O)[nH]c3ccccc3c2=O)CC1 [KETANSERIN] | > 20 µM | > 20 µM
12 | C[C@H]1[C@H]2C(=O)c3ccc(O)cc3[C@]1(C)CCN2CC1CC1 [KETAZOCINE] | > 20 µM | > 20 µM
13 | CCC(=O)C1(c2cccc(O)c2)CCN(C)CC1 [KETOBEMIDONE] | > 20 µM | > 20 µM
14 | CC(C(=O)O)c1cccc(C(=O)c2ccccc2)c1 (centres undefined) [KETOPROFEN] | > 20 µM | > 20 µM
15 | O=C(c1ccccc1)c1ccc2n1CCC2C(=O)O (centres undefined) [KETOROLAC] | > 20 µM | > 20 µM
16 | CN1CCC(=C2c3ccccc3CC(=O)c3sccc32)CC1 [KETOTIFEN] | > 20 µM | > 20 µM
17 | COc1c2occc2c(OC)c2c(=O)cc(C)oc12 [KHELLIN] | > 20 µM | > 20 µM
18 | OC[C@H]1O[C@@H](n2cnc3c(NCc4ccco4)ncnc32)[C@H](O)[C@@H]1O [KINETIN RIBOSIDE] | > 20 µM | > 20 µM
19 | c1coc(CNc2ncnc3[nH]cnc23)c1 [KINETIN] | > 20 µM | > 20 µM
20 | O=c1cc(CO)occ1O [KOJIC ACID] | > 20 µM | > 20 µM
21 | CCCCCCCOC(=O)NC1=NC(=O)N([C@H]2C[C@H](O)[C@@H](CO)O2)CN1 [KP-1461] | > 20 µM | > 20 µM
22 | O=C(c1ccc(/C=C/c2n[nH]c3ccccc23)cc1)N1CCNCC1 [KW-2449] | > 20 µM | > 20 µM
23 | CCc1c(O)cc(O)c(C(=O)c2ccc(OCCN3CCOCC3)c(OC)c2)c1CC(=O)N(CCOC)CCOC [KW-2478 FREE BASE] | > 20 µM | > 20 µM
24 | Nc1ccccc1C(=O)CC(N)C(=O)O (centres undefined) [KYNURENINE] | > 20 µM | > 20 µM
25 | Cc1cccc(NC(=O)N[C@@H]2N=C(c3ccccc3)c3ccccc3N(C)C2=O)c1 [L-365260] | > 20 µM | > 20 µM
26 | NC(=O)NCCC[C@H](N)C(=O)O [L-CITRULLINE] | > 20 µM | > 20 µM

Row | Structure (SMILES) | IC50 | IC50 (read-out: pIC50 (converted))
27 | C[C@H](O)C(=O)O [L-LACTIC ACID] | > 20 µM | > 20 µM
28 | N[C@H](CO)Cc1ccccc1 [L-PHENYLALANINOL] | > 20 µM | > 20 µM
29 | CC(CCc1ccccc1)NCC(O)c1ccc(O)c(C(N)=O)c1 (centres undefined) [LABETALOL] | > 20 µM | > 20 µM
30 | OC[C@@H](O)[C@@H](O[C@@H]1O[C@H](CO)[C@H](O)[C@H](O)[C@H]1O)[C@H](O)[C@@H](O)CO [LACTITOL] | > 20 µM | > 20 µM
31 | OC[C@H]1O[C@@H](O[C@@H]2[C@@H](CO)O[C@](O)(CO)[C@H]2O)[C@H](O)[C@@H](O)[C@H]1O [LACTULOSE] | > 20 µM | > 20 µM
32 | O=C(C[S+]([O-])Cc1ccco1)NC/C=C\COc1cc(CN2CCCCC2)ccn1 (centres undefined) [LAFUTIDINE] | > 20 µM | > 20 µM
33 | N=C(N)c1ccc(C(=O)N[C@@H](Cc2ccc(O)cc2)C(=O)N2CCC(OCC(=O)O)CC2)cc1 [LAMIFIBAN] | > 20 µM | > 20 µM
34 | Nc1ccn([C@@H]2CS[C@H](CO)O2)c(=O)n1 [LAMIVUDINE] | > 50.1 µM | > 50.1 µM
35 | Nc1nnc(-c2cccc(Cl)c2Cl)c(N)n1 [LAMOTRIGINE] | > 20 µM | > 20 µM
36 | Cc1c(OCC(F)(F)F)ccnc1C[S+]([O-])c1nc2ccccc2[nH]1 (centres undefined) [LANSOPRAZOLE] | > 20 µM | > 20 µM
37 | CC(C)=CCC1=C(O)C(=O)c2ccccc2C1=O [LAPACHOL] | > 20 µM | > 20 µM
38 | COc1cccc([C@H]2O[C@H](CC(=O)N3CCC(CC(=O)O)CC3)C(=O)N(CC(C)(C)COC(C)=O)c3ccc(Cl)cc32)c1OC [LAPAQUISTAT ACETATE] | > 20 µM | > 20 µM
39 | CS(=O)(=O)CCNCc1ccc(-c2ccc3ncnc(Nc4ccc(OCc5cccc(F)c5)c(Cl)c4)c3c2)o1 [LAPATINIB] | > 20 µM | > 20 µM
40 | CCN(C(=O)c1c(O)c2c(Cl)cccc2n(C)c1=O)c1ccccc1 [LAQUINIMOD] | > 20 µM | > 20 µM
41 | Oc1ccc2c(c1)CC[C@H](c1ccccc1)[C@@H]2c1ccc(OCCN2CCCC2)cc1 [LASOFOXIFENE] | > 20 µM | > 20 µM
42 | CC(C)OC(=O)CCC/C=C\C[C@@H]1[C@@H](CC[C@@H](O)CCc2ccccc2)[C@H](O)C[C@@H]1O [LATANOPROST] | > 20 µM | > 20 µM
43 | Cc1ccc2c(c1)c1c(n2CCc2ccc(C)nc2)CCN(C)C1 [LATREPIRDINE] | > 20 µM | > 20 µM
44 | COc1ccc(CC2c3cc(OC)c(OC)cc3CCN2C)cc1OC (centres undefined) [LAUDANOSINE] | > 20 µM | > 20 µM
45 | CCCCCCCCCCCCN1CCCCCC1=O [LAUROCAPRAM] | > 20 µM | > 20 µM
46 | Cn1nc(CO)nc1NCCCOc1cccc(CN2CCCCC2)c1 [LAVOLTIDINE] | > 20 µM | > 20 µM
47 | Cc1cc(OC(=O)c2c(C)cc(O)cc2O)cc(O)c1C(=O)O [LECANORIC ACID] | > 20 µM | > 20 µM
48 | Cc1oncc1C(=O)Nc1ccc(C(F)(F)F)cc1 [LEFLUNOMIDE] | > 20 µM | > 20 µM
49 | CCN(CC)CCOc1ccccc1-n1c(C)ccc1-c1ccccc1 [LEIOPYRROLE] | > 20 µM | > 20 µM
50 | Nc1cccc2c1CN(C1CCC(=O)NC1=O)C2=O (centres undefined) [LENALIDOMIDE] | > 20 µM | > 20 µM
51 | O=C(CCCN1CCC(C(=O)c2ccc(F)cc2)CC1)c1ccc(F)cc1 [LENPERONE] | > 20 µM | > 20 µM
52 | COc1cc2nccc(Oc3ccc(NC(=O)NC4CC4)c(Cl)c3)c2cc1C(N)=O [LENVATINIB] | > 20 µM | > 20 µM
